According to article PMC7230232, “Secondary Metabolites from the Culture of the Marine-derived Fungus Paradendryphiella salina PC 362H and Evaluation of the Anticancer Activity of Its Metabolite Hyalodendrin” (Marine Drugs, 2020):
Where “and” joins values, the source holds several entries; their conditions need not be identical. Equal entries are not always repeated. Where two headings read alike, the source gives them in different places.

Columns and labels:
[1] = test system: MCF7-Sh-WISP2 cells; experiment: MTT cell viability assay, MCF7-Sh-WISP2; type: cell-based, human; conditions: pure compounds, MTT, read-out: IC50 MCF7-Sh-WISP2
Description: (§1) Cellular viability was determined by the MTT (methylthiazolyldiphenyl-tetrazolium bromide) assay. Briefly, cells were exposed to the indicated concentrations of crude extracts or compounds 1–4 for five doubling times and then incubated for 3 h at 37 °C with MTT. Formazan crystals were then dissolved in DMSO and optical density measured at 570 nm in a microplate reader. The half-maximal inhibitory concentration (IC50) was determined. Values given for crude extracts are averages of at least two experiments done in duplicate. IC50 values calculated for the four isolated compounds and the commercially available 4-hydroxy-tamoxifen (Sigma-Aldrich) are averages of at least three experiments done in duplicate.

[2] = test system: 3T3-F442A cells; experiment: MTT cell viability assay, 3T3-F442A pre-adipocytes; type: cell-based, murine; conditions: pure compounds, MTT, read-out: IC50 3T3-F442A
Description: as §1

[3] = test system: MCF7 cells; experiment: MTT cell viability assay, MCF7; type: cell-based, human; conditions: MTT, read-out: IC50 MCF7
Description: as §1

[4] = test system: Plasmodium falciparum (chloroquine-resistant FcB1/Colombia strain); experiment: Anti-plasmodial assay ([3H]hypoxanthine incorporation); type: cell-based; conditions: data not shown, read-out: IC50 against Plasmodium falciparum
Description: Supplementary materials and methods.
The fungus was isolated in January 2012 as an endophyte from the holdfast of P. caniculata harvested in Roscoff (Britany, France). Both morphological assessment and internal transcribed spacer (ITS) sequencing were performed to identify it as Paradendryphiella salina. It is now maintained at the MCAM culture collection (Muséum National d’Histoire Naturelle, Paris) under the number PC 362H.
The anti-plasmodial activity was evaluated against the chloroquine-resistant FcB1/Colombia strain of Plasmodium falciparum. The assay was performed using the method of Desjardins (Desjardins et al., 1979). Extracts and pure compounds were diluted in Dimethyl Sulfoxyde (DMSO) and added to the culture medium (final concentration: 20 µg/mL) in 96-well microplates. Asynchronous parasite cultures were then added (1 % parasitemia and 1 % final hematocrite), and plates were maintained for 24 hours at 37 °C in a candle jar. […] After a cycle of freezing and thawing, the cells were harvested from each well onto glass fiber filters, and the dried filters were counted in a scintillation counter. The growth inhibition for each well was determined by comparison of the radioactivity incorporated into the treated culture with that in the control culture maintained on the same plate. […]

[5] = Homo sapiens, MCF7, pure compounds

4-hydroxy-tamoxifen [Hydroxi Tamoxifen, reference compound]
IC50 [1]: 11.6 µM | IC50 [2]: 14.5 µM | IC50 ([3]; pure compounds): 8.8 µM

C[C@H](C(=O)O)[C@H]1CC[C@@]2(C)C3=C(C[C@@H](O)[C@]12C)[C@@]1(C)CC[C@H](O)C(C)(C)C1CC3 (relative stereo) [Compound 1, Dendryphiellide A]
IC50 ([1]; Homo sapiens): > 25 µg/mL | IC50 [1]: > 60 µM | IC50 ([2]; Mus musculus): > 25 µg/mL | IC50 [2]: > 60 µM | IC50 [3, 5]: 20 µg/mL | IC50 [4]: 65 ± 4.2 µM

COC(=O)CNC(=O)CC[C@@H](C)[C@H]1CC[C@H]2[C@H]3C(C[C@H](O)[C@]12C)[C@@]1(C)CC[C@@H](O)C[C@H]1C[C@H]3O (stereo partly shown) [Compound 2, glycocholic acid methyl ester]
IC50 ([1]; Homo sapiens): > 25 µg/mL and > 50 µM | IC50 ([2]; Mus musculus): > 25 µg/mL and > 50 µM | IC50 [3, 5]: > 25 µg/mL and > 50 µM | IC50 [4]: 20.5 ± 3.5 µM

CS[C@]1(CO)C(=O)N(C)[C@](Cc2ccccc2)(SC)C(=O)N1C [Compound 4, (3R, 6R) bisdethiodi(methylthio)hyalodendrin]
IC50 ([1]; Homo sapiens): 24 µg/mL and 68 µM | IC50 ([2]; Mus musculus): 92 µg/mL and 26 µM | IC50 [3, 5]: 15 µg/mL and 42 µM
